Reference: patent US8168632B2, “Bicyclic amide derivatives for the treatment of respiratory disorders” (Cortex Pharmaceuticals, Inc., priority 2007, dated 2012)

System: AMPA receptor
Test: In vivo electrophysiology (field EPSP in dentate gyrus of anesthetized animals)
Conditions: 10 mpk i.p., perforant path stimulation
Description: The electrophysiological effects of the invention compounds were tested in vivo in anesthetized animals according to the following procedures. Animals are maintained under anesthesia by phenobarbital administered using a Hamilton syringe pump. Stimulating and recording electrodes are inserted into the perforant path and dentate gyrus of the hippocampus, respectively. Once electrodes are implanted, a stable baseline of evoked responses are elicited using single monophasic pulses (100 μs pulse duration) delivered at 3/min to the stimulating electrode. Field EPSPs are monitored until a stable baseline is achieved (about 20-30 min), after which a solution of test compound is injected intraperitoneally and evoked field potentials are recorded. Evoked potentials were recorded for approximately 2 h following drug administration or until the amplitude of the field EPSP returns to baseline. In the latter instance, it is common that an iv administration is also carried out with an appropriate dose of the same test compound. Invention compounds were assayed in the in vivo electrophysiology assay described above and data for representative test compounds is shown in the Table.
The electrophysiological effects of invention compounds were tested in vivo in anesthetized animals according to the following procedures.
Animals are maintained under anesthesia by phenobarbital administered using a Hamilton syringe pump. Stimulating and recording electrodes are inserted into the perforant path and dentate gyrus of the hippocampus, respectively. Once electrodes are implanted, a stable baseline of evoked responses are elicited using single monophasic pulses (100 μs pulse duration) delivered at 3/min to the stimulating electrode. Field EPSPs are monitored until a stable baseline is achieved (about 20-30 min), after which a solution of test compound is injected intraperitoneally and evoked field potentials are recorded. Evoked potentials are recorded for approximately 2 h following drug administration or until the amplitude of the field EPSP returns to baseline. […]

First: O=C(c1ccc2nonc2c1)N1C2CCC1COC2 [Example 1, [2,1,3]-Benzoxadiazol-5-yl(3-oxa-8-azabicyclo[3.2.1]oct-8-yl)methanone]
Second: O=C(c1ccc2nonc2c1)N1C2CCCC1COC2 [Example 2, [2,1,3]-Benzoxadiazol-5-yl(3-oxa-9-azabicyclo[3.3.1]non-9-yl)methanone]
The “In vivo Electrophysiology: % increase in the amplitude of the field EPSP in the dentate gyrus of rat” value of the first is higher: 17% for the first, 16% for the second.

With `O=C(c1ccc2nonc2c1)N1C2COCC1COC2` [Example 3, [2,1,3]-Benzoxadiazol-5-yl(3,7-dioxa-9-azabicyclo[3.3.1]non-9-yl)methanone] the “In vivo Electrophysiology: % increase in the amplitude of the field EPSP in the dentate gyrus of rat” value was 15%.
